{"source": "paper PMC6704710", "about": "“Preclinical evaluation of 3D185, a novel potent inhibitor of FGFR1/2/3 and CSF-1R, in FGFR-dependent and macrophage-dominant cancer models” (Journal of Experimental & Clinical Cancer Research : CR, 2019)", "key": {"BrSK2(h)": {"biological_target": "T1, BrSK2(h) (Homo sapiens, UniProt Q8IWQ3)", "T1 construct": "purchased Eurofins (KinaseProfiler)", "T1 sequence (Q8IWQ3 1-736)": "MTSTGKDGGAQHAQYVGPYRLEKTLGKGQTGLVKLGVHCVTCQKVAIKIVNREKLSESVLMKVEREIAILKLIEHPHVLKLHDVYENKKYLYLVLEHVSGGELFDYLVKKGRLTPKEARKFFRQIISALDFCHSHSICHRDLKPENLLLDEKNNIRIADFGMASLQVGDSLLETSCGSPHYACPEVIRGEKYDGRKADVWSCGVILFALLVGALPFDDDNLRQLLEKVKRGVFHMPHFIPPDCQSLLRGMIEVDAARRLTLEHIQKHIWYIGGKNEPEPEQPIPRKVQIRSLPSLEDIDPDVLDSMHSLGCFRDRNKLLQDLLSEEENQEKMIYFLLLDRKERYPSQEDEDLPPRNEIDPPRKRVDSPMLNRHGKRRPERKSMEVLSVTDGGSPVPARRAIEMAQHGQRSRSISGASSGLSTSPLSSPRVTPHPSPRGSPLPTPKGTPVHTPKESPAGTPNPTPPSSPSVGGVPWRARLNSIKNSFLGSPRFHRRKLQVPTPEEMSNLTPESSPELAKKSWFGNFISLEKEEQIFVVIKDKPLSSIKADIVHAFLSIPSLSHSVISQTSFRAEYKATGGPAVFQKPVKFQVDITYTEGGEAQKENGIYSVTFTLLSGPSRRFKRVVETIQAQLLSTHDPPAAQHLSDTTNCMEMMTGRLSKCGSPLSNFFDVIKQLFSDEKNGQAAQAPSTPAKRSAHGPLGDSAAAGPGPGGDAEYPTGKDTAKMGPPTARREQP", "assay": "Eurofins kinase panel", "assay_type": "biochemical", "conditions": "read-out: Inhibition rate (%)"}, "CDK2/cyclinE(h)": {"biological_target": "T2, CDK2/cyclinE(h) (Homo sapiens, UniProt P24941)", "T2 construct": "purchased Eurofins (KinaseProfiler)", "assay": "Eurofins kinase panel", "assay_type": "biochemical", "conditions": "read-out: Inhibition rate (%)"}, "CDK7/cyclinH/MAT1(h)": {"biological_target": "T3, CDK7/cyclinH/MAT1(h) (Homo sapiens, UniProt P50613)", "T3 construct": "purchased Eurofins (KinaseProfiler)", "T3 sequence (P50613 whole entry)": "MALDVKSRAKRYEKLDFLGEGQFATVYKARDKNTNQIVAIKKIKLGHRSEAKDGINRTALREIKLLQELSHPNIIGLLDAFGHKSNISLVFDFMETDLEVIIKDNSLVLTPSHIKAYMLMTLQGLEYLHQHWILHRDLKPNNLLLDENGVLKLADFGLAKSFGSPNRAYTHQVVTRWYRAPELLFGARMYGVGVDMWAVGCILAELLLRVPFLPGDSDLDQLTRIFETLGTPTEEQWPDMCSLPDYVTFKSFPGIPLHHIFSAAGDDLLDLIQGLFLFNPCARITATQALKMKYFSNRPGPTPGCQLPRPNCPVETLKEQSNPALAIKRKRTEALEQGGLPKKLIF", "T3 sequence (P51946 whole entry partner)": "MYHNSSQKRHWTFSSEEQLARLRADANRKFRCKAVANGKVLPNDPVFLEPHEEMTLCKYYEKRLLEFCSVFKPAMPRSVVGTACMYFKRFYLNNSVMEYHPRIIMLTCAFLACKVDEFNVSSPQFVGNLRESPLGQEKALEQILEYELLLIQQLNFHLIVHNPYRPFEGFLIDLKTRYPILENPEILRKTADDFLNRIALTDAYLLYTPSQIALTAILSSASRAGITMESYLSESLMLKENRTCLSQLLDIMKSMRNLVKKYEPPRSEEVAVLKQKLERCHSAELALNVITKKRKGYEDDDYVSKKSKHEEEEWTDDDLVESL", "T3 sequence (P51948 whole entry partner)": "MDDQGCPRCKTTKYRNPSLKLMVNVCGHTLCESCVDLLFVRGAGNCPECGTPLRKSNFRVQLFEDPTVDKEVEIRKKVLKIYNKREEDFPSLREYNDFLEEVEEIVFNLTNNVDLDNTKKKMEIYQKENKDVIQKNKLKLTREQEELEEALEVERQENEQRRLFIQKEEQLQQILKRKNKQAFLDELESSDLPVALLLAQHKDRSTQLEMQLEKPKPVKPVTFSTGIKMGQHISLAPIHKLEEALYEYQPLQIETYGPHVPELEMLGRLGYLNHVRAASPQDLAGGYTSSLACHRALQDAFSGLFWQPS", "assay": "Eurofins kinase panel", "assay_type": "biochemical", "conditions": "read-out: Inhibition rate (%)"}, "ChaK1(h)": {"biological_target": "T4, ChaK1(h) (Homo sapiens, UniProt Q96QT4)", "T4 construct": "purchased Eurofins (KinaseProfiler)", "T4 sequence (Q96QT4 whole entry)": "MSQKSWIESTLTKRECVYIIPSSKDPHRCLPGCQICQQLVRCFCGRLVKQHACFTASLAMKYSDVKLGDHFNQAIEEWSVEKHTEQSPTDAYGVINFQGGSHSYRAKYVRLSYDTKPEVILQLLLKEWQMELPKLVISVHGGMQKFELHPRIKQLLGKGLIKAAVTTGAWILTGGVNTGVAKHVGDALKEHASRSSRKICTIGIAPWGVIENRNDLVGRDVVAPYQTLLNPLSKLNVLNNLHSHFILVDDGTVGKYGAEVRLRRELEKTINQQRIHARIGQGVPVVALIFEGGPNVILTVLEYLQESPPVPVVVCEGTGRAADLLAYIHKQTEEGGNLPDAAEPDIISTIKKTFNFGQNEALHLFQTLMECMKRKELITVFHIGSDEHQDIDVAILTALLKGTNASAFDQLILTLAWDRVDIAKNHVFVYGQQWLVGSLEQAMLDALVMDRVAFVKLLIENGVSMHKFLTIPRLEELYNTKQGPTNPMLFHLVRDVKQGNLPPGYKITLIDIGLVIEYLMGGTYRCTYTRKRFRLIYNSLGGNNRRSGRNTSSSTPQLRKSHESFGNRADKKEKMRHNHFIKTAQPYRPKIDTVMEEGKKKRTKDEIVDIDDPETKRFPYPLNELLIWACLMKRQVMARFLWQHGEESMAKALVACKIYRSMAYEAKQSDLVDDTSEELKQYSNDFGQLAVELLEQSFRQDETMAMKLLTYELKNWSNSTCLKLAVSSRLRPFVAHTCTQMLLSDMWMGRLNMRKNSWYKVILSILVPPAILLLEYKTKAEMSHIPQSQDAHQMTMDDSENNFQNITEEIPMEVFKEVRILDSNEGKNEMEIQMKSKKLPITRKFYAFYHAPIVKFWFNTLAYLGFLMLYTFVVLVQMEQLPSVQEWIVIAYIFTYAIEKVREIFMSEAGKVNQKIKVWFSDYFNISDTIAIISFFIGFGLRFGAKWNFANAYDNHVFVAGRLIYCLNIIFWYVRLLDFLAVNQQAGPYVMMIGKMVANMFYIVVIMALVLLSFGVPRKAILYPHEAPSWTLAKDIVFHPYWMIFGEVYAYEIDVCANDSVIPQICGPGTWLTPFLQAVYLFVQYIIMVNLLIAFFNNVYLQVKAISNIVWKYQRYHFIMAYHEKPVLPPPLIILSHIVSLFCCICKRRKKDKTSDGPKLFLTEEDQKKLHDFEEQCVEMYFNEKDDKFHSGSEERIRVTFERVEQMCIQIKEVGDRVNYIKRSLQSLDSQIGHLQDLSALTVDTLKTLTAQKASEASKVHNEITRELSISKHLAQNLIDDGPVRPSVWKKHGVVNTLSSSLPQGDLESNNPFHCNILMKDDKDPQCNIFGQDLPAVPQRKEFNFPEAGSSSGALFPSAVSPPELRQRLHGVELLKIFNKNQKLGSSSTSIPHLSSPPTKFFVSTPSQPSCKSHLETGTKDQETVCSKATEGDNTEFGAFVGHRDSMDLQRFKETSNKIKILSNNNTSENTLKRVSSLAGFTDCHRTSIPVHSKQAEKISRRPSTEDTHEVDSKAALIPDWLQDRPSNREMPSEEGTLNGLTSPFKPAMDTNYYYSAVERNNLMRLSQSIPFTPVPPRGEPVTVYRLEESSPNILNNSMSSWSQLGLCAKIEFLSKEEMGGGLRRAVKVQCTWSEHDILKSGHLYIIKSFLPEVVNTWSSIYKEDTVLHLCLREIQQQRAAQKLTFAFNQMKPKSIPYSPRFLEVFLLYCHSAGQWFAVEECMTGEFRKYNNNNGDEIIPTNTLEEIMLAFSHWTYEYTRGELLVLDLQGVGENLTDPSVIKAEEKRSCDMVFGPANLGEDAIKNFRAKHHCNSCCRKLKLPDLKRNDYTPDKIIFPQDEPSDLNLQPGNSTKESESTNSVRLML", "assay": "Eurofins kinase panel", "assay_type": "biochemical", "conditions": "read-out: Inhibition rate (%)"}, "DAPK1(h)": {"biological_target": "T5, DAPK1(h) (Homo sapiens, UniProt P53355)", "T5 construct": "purchased Eurofins (KinaseProfiler)", "T5 sequence (P53355 whole entry)": "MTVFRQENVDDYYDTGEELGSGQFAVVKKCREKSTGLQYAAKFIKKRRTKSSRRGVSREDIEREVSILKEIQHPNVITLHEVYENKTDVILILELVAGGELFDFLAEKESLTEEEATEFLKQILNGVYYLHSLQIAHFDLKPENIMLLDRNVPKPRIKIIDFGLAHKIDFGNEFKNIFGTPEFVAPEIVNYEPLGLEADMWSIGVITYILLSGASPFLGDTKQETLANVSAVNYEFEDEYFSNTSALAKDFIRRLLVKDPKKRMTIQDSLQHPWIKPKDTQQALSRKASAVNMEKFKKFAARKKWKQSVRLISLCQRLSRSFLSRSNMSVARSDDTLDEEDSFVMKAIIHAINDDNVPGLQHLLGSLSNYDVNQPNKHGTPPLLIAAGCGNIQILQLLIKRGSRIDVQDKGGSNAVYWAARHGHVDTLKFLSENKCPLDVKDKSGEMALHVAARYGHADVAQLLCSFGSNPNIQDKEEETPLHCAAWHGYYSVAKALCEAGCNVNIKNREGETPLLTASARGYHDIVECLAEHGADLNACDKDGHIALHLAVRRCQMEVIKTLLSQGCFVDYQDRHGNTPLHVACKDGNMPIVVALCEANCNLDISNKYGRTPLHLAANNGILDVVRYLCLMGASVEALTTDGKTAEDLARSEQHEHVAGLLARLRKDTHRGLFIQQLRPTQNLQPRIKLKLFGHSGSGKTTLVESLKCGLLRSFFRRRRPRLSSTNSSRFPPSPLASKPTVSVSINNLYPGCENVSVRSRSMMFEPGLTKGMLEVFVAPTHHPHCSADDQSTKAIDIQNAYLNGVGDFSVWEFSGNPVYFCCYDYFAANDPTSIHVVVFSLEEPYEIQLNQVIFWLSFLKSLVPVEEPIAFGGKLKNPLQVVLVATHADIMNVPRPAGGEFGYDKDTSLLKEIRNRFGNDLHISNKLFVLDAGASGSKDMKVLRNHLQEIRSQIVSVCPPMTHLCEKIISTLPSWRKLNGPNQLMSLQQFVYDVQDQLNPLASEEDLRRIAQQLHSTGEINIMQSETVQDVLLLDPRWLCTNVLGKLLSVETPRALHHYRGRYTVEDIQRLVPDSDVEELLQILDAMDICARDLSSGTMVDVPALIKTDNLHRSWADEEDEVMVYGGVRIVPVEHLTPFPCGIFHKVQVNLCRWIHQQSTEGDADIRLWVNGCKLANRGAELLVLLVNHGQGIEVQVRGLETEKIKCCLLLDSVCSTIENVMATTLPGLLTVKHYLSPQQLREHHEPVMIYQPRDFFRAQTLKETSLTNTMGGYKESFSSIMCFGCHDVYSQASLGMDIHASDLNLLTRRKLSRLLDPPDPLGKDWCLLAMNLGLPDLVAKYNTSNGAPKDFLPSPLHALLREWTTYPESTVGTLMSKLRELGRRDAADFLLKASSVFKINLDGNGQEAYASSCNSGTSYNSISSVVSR", "assay": "Eurofins kinase panel", "assay_type": "biochemical", "conditions": "read-out: Inhibition rate (%)"}, "GRK2(h)": {"biological_target": "T6, GRK2(h) (Homo sapiens, UniProt P25098)", "T6 construct": "purchased Eurofins (KinaseProfiler)", "T6 sequence (P25098 1-689)": "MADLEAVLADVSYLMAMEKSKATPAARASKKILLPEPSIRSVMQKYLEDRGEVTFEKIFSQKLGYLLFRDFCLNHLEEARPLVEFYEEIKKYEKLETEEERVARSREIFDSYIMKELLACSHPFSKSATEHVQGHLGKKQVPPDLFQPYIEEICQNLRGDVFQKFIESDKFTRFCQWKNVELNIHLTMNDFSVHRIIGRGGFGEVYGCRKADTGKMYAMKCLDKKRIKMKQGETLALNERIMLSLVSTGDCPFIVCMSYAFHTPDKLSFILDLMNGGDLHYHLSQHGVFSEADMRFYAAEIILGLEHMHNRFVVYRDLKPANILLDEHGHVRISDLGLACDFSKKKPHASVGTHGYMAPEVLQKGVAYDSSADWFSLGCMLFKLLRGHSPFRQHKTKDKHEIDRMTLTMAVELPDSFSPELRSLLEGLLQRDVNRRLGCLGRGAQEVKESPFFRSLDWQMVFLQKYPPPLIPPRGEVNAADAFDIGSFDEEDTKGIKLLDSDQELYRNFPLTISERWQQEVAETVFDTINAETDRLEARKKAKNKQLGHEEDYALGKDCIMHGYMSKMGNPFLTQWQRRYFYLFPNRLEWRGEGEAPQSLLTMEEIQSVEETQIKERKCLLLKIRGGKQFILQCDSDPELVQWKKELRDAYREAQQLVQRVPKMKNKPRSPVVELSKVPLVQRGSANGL", "assay": "Eurofins kinase panel", "assay_type": "biochemical", "conditions": "read-out: Inhibition rate (%)"}, "MSK1(h)": {"biological_target": "T7, MSK1(h) (Homo sapiens, UniProt O75582)", "T7 construct": "purchased Eurofins (KinaseProfiler)", "assay": "Eurofins kinase panel", "assay_type": "biochemical", "conditions": "read-out: Inhibition rate (%)"}, "RIPK2(h)": {"biological_target": "T8, RIPK2(h) (Homo sapiens, UniProt O43353)", "T8 construct": "purchased Eurofins (KinaseProfiler)", "T8 sequence (O43353 whole entry)": "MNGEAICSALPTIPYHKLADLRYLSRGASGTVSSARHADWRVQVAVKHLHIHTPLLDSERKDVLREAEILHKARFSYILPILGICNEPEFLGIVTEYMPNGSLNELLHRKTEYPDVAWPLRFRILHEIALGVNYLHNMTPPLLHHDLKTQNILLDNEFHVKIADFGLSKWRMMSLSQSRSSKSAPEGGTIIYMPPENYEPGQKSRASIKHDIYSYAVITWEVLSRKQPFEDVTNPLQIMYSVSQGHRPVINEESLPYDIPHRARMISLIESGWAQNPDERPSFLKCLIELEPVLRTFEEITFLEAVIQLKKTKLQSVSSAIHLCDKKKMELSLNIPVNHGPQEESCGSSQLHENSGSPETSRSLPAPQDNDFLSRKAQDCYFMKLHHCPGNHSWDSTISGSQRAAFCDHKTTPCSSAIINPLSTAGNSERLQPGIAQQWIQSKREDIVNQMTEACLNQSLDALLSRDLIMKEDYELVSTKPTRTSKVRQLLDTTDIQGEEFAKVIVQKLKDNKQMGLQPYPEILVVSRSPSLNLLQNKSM", "assay": "Eurofins kinase panel", "assay_type": "biochemical", "conditions": "read-out: Inhibition rate (%)"}, "SGK3(h)": {"biological_target": "T9, SGK3(h) (Homo sapiens, UniProt Q96BR1)", "T9 construct": "purchased Eurofins (KinaseProfiler)", "T9 sequence (Q96BR1 1-496)": "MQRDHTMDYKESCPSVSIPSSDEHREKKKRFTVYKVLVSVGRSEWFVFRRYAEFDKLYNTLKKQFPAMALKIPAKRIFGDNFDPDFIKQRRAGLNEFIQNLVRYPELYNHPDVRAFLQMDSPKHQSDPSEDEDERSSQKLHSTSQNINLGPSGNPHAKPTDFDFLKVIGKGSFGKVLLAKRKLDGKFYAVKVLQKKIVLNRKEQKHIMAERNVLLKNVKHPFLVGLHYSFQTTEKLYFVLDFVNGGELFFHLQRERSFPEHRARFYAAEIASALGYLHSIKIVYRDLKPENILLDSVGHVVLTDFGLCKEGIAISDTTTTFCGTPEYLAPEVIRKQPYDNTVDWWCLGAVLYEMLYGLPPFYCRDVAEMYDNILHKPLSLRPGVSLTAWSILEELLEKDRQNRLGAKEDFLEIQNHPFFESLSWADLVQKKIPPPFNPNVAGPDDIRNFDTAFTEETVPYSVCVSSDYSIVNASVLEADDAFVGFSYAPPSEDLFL", "assay": "Eurofins kinase panel", "assay_type": "biochemical", "conditions": "read-out: Inhibition rate (%)"}, "Snk(h)": {"biological_target": "T10, Snk(h) (Homo sapiens, UniProt Q9NYY3)", "T10 construct": "purchased Eurofins (KinaseProfiler)", "assay": "Eurofins kinase panel", "assay_type": "biochemical", "conditions": "read-out: Inhibition rate (%)"}, "[1]": {"system": "bFGF-induced primary HUVECs", "assay": "bFGF-induced HUVEC proliferation (CCK-8)", "assay_type": "cell-based, human"}}, "data": [{"smiles": "COc1cc(OC)c(Cl)c(-c2ccc3c(NC(=O)c4ccc(N5CCNC(C)(C)C5)cc4)n[nH]c3n2)c1Cl", "note": "[3D185]", "values": [{"measurement": "inhibition at 0.01 µM", "setting": "BrSK2(h); 10 nM", "result": 8, "unit": "%"}, {"measurement": "inhibition at 0.1 µM", "setting": "BrSK2(h); 100 nM", "result": 5, "unit": "%"}, {"measurement": "inhibition at 1 µM", "setting": "BrSK2(h); 1000 nM", "result": 11, "unit": "%"}, {"measurement": "inhibition at 0.01 µM", "setting": "CDK2/cyclinE(h); 10 nM", "result": -5, "unit": "%"}, {"measurement": "inhibition at 0.1 µM", "setting": "CDK2/cyclinE(h); 100 nM", "result": 2, "unit": "%"}, {"measurement": "inhibition at 1 µM", "setting": "CDK2/cyclinE(h); 1000 nM", "result": 10, "unit": "%"}, {"measurement": "inhibition at 0.01 µM", "setting": "CDK7/cyclinH/MAT1(h); 10 nM", "result": 12, "unit": "%"}, {"measurement": "inhibition at 0.1 µM", "setting": "CDK7/cyclinH/MAT1(h); 100 nM", "result": 11, "unit": "%"}, {"measurement": "inhibition at 1 µM", "setting": "CDK7/cyclinH/MAT1(h); 1000 nM", "result": 11, "unit": "%"}, {"measurement": "inhibition at 0.01 µM", "setting": "ChaK1(h); 10 nM", "result": 2, "unit": "%"}, {"measurement": "inhibition at 0.1 µM", "setting": "ChaK1(h); 100 nM", "result": -10, "unit": "%"}, {"measurement": "inhibition at 1 µM", "setting": "ChaK1(h); 1000 nM", "result": 8, "unit": "%"}, {"measurement": "inhibition at 0.01 µM", "setting": "DAPK1(h); 10 nM", "result": 5, "unit": "%"}, {"measurement": "inhibition at 0.1 µM", "setting": "DAPK1(h); 100 nM", "result": 13, "unit": "%"}, {"measurement": "inhibition at 1 µM", "setting": "DAPK1(h); 1000 nM", "result": 19, "unit": "%"}, {"measurement": "inhibition at 0.01 µM", "setting": "GRK2(h); 10 nM", "result": 5, "unit": "%"}, {"measurement": "inhibition at 0.1 µM", "setting": "GRK2(h); 100 nM", "result": 1, "unit": "%"}, {"measurement": "inhibition at 1 µM", "setting": "GRK2(h); 1000 nM", "result": -4, "unit": "%"}, {"measurement": "inhibition at 0.01 µM", "setting": "MSK1(h); 10 nM", "result": 31, "unit": "%"}, {"measurement": "inhibition at 0.1 µM", "setting": "MSK1(h); 100 nM", "result": 19, "unit": "%"}, {"measurement": "inhibition at 1 µM", "setting": "MSK1(h); 1000 nM", "result": 24, "unit": "%"}, {"measurement": "inhibition at 0.01 µM", "setting": "RIPK2(h); 10 nM", "result": 2, "unit": "%"}, {"measurement": "inhibition at 0.1 µM", "setting": "RIPK2(h); 100 nM", "result": 6, "unit": "%"}, {"measurement": "inhibition at 1 µM", "setting": "RIPK2(h); 1000 nM", "result": 3, "unit": "%"}, {"measurement": "inhibition at 0.01 µM", "setting": "SGK3(h); 10 nM", "result": 3, "unit": "%"}, {"measurement": "inhibition at 0.1 µM", "setting": "SGK3(h); 100 nM", "result": 2, "unit": "%"}, {"measurement": "inhibition at 1 µM", "setting": "SGK3(h); 1000 nM", "result": 14, "unit": "%"}, {"measurement": "inhibition at 0.01 µM", "setting": "Snk(h); 10 nM", "result": 0, "unit": "%"}, {"measurement": "inhibition at 0.1 µM", "setting": "Snk(h); 100 nM", "result": -2, "unit": "%"}, {"measurement": "inhibition at 1 µM", "setting": "Snk(h); 1000 nM", "result": 10, "unit": "%"}, {"measurement": "IC50", "setting": "[1]; Homo sapiens, HUVEC, bFGF 100 ng/mL, 48 h", "result": 0.5, "unit": "nM"}, {"measurement": "fold more potent on bFGF-induced than VEGF-induced HUVEC proliferation", "setting": "[1]; cellular assays", "result": "greater than 176 fold"}]}]}
